Earlier results in patent publication US20170281506A1, “COMPOSITION FOR TOPICAL APPLICATION FOR PREVENTING HAIR LOSS AND STIMULATING HAIR GROWTH” (priority 2011, published 2017).

System: men
Settings: oral, treated constantly for two years

CC(C)(C)NC(=O)[C@H]1CC[C@H]2[C@@H]3CC[C@H]4NC(=O)C=C[C@]4(C)[C@H]3CC[C@]12C [Finasteride, finasteride]
participants who maintained or increased the number of hairs after the treatment: 83%
participants who showed no hair loss: 17%
